Laboratory results from patent US9603869B2, “Lithium co-crystals and an additional neuropsychiatric agent for treatment of neuropsychiatric disorders” (UNIVERSITY OF SOUTH FLORIDA, priority 2015, dated 2017).
Where two headings read alike, the source gives them in different places.

Experiments:
[1] = tested on: β-amyloid pathology in Tg2576 mice; conditions: diet 8 weeks, lithium 2.25 mmol/kg/day, Li2CO3 vs control NIH31 diet
Method: All mice received normal drinking water ad libitum. […] Mouse brain tissue sections and homogenates were prepared from each mouse after treatment. Half-brain coronal sections were analyzed by Aβ antibody 4G8 staining (FIG. 14A). Percentage of 4G8 positive plaques (mean±SD) was quantified by image analysis (28, 29) (FIG. 14B). Total soluble and insoluble Aβ40,42 peptides from homogenates were analyzed by ELISA, and represented as picograms of Aβ peptides per mg of total protein (FIG. 14C).

[2] = tested on: Murine neuronal stem cells; assay: Murine neuronal stem cell differentiation (MAP2, total tau, phospho-synapsin I); assay type: cell-based, mouse; conditions: 10 mM, 4 days; for difference in MAP2, phospho-synapsin I and total tau immunofluorescence and WB between Li2CO3, LiCl and L-proline: murine neuronal stem cells, P>0.05
Method: FIGS. 6A-6F. […] These cells were then permeabilized, washed and stained with mouse anti-MAP2 monoclonal antibody (EMD Millipore) or mouse anti-total tau (tau46) antibody overnight at 4° C. […] Confocal images were taken by Olympus fluoview FV1000 laser scanning confocal microscope. […] DAPI staining (Life Technologies) was used to detect nuclear DNA. Confocal images were taken by Olympus Fluoview™ FV1000 laser scanning confocal microscope (FIG. 17A). […] The band density ratios of MAP2 to β-actin, total tau to β-actin, and phospho-synapsin I to β-actin are presented as mean±S.D (FIGS. 17B-1, 17B-2, and 17B-3, respectively).

N2a cells = assay: Neuronal cell differentiation of N2a cells (β-tubulin III, phospho-synapsin I); assay type: cell-based, mouse; conditions: 10 mM, 24 hours; for difference in β-tubulin III and phospho-synapsin I immunofluorescence and WB between Li2CO3, LiCl and L-proline: P>0.05
Method: FIGS. 5A-5C. […] These cells were then permeabilized with 0.05% Triton X-100 for 5 minutes, washed and stained with mouse anti-β-tubulin III monoclonal antibody ([…]™) and rabbit anti-phospho-Synapsin I (Ser^62, Ser^67) polyclonal antibody (EMD Millipore) overnight at 4° C. […] Confocal images were taken by Olympus fluoview FV1000 laser scanning confocal microscope (Tokyo, Japan).
These cells were then permeabilized with 0.05% Triton X-100 for 5 min, washed, and stained with mouse anti-β-tubulin III monoclonal antibody ([…]™) and rabbit anti-phospho-synapsin I (Ser^62, Ser^67) polyclonal antibody (EMD Millipore) overnight at 4° C. […] Confocal images were taken by Olympus Fluoview™ FV1000 laser scanning confocal microscope (Tokyo, Japan) (FIG. 5A).

[3] = C57BL/6J mice, diet 1 or 2 weeks, lithium 1.125 or 2.25 mmol/kg/day
Method: All mice received normal drinking water ad libitum. Statistical analysis was carried out following ANOVA analysis.

COX2 [4] = conditions: Tg2576 mice, diet 8 weeks, lithium 2.25 mmol/kg/day
[5] = tested on: Human neural stem cells (H9-Derived); assay: Human neuronal stem cell differentiation (MAP2, GFAP); assay type: cell-based; conditions: 10 mM, 14 days; for difference in MAP2 and GFAP immunofluorescence and WB between Li2CO3, LiCl and L-proline: human neural stem cells, P>0.05
Excerpt: Human neural stem cells (H9-Derived) were obtained from Life technologies and cultured with StemPro® NSC SFM media. […] DAPI was used to detect nuclear DNA. Confocal images were taken by Olympus Fluoview™ FV1000 laser scanning confocal microscope (FIG. 18A).

[6] = tested on: Mouse primary microglial cells; assay: Autophagy (LC3B staining) in mouse primary microglial cells; assay type: cell-based; conditions: 10 mM, 18 hours; for autophagy (LC3B fluorescence intensity of autophagosomes and cytosol): vs PBS control; for difference in fluorescence intensity of autophagosomes and cytosol versus Li2CO3: P>0.05
Excerpt: FIG. 8. […] The fluorescence intensity of the autophagosomes and the cytosol were quantified using SLIDEBOOK™ digital microscopy software.
The fluorescence intensity of the autophagosomes and the cytosol were quantified using Slidebook™ digital microscopy software (mean±SD) (FIG. 19).

GSK3β [7] = assay: GSK3β phosphorylation Western blot in human renal proximal tubule (HRPT) cells; assay type: cell-based; conditions: 0 to 30 mM, 12 hours
cytokines and sCD40L = conditions: Tg2576 mice, diet 8 weeks, 2.25 mmol/kg/day
Excerpt: In addition, spleens from these mice were isolated and splenocytes cultured as described previously (30).

[8] = rats, 4 mEq/kg lithium, oral gavage
GSK3β [9] = conditions: Tg2576 mice, diet 8 weeks, 2.25 mmol/kg/day; LISPRO vs Li2CO3-treated, Li2CO3 vs control NIH31 diet
Excerpt: (§1) Inhibitory phosphorylation status of GSK3β was detected by anti-phospho-GSK3β (Ser^9) [pGSK3β (Ser^9)] antibody.

tau = conditions: Tg2576 mice, diet 8 weeks, 2.25 mmol/kg/day; LISPRO vs Li2CO3-treated, Li2CO3 vs control NIH31 diet
Excerpt: as §1

COX2 [10] = assay: COX2 expression Western blot in human renal proximal tubule (HRPT) cells; conditions: 0 to 30 mM, 12 hours
Excerpt: These cells were then lysed with cell lysis buffer and analyzed by WB for COX2, total GSK3β and phospho GSK3β (Ser9 and Thr390) expression using anti-COX2 antibody (FIG. 7A, ABCAM®) and anti-phospho- and total GSK3β antibodies (FIG. 7B).
These cells were then lysed with cell lysis buffer and analyzed by WB for COX2, total GSK3β and phospho GSK3β (Ser^9) expressions using anti-COX2 antibody (FIG. 20A, Abcam®) and anti-phospho- and total GSK3β antibodies (FIG. 20B).

COX2 [11] = conditions: C57BL/6J male mice, diet 1 or 2 weeks, lithium 1.125 and 2.25 mmol/kg/day
Excerpt: All mice received normal drinking water ad libitum. Kidneys were collected after treatment and analyzed by immunohistochemistry for COX2 expression in the renal medulla (FIG. 21A). In addition, the kidney microsomal proteins were extracted to assess COX2 expression by WB (FIGS. 21B-1, 21B-2). Data are expressed as mean±SD in duplicates from six mice in each group (FIG. 21B-3).

3XTg-AD mice = conditions: chow 4 months
Excerpt: In order to reduce potential lithium toxicity in the kidney, a saline bottle will be provided in addition to water in all cages. Behavior of animals in these groups and in non-transgenic untreated wild-type mice will be evaluated after treatment, with a established behavioral battery which measures multiple cognitive domains, including open field, novel object recognition, radial arm water maze, and contextual and cued fear conditioning (42-46).
The behavioral battery will include the Balance Beam Task, to evaluate vestibular and general motor function and account for any problems that may occur with the rest of the tests due to motor (and not behavioral/cognitive) impairment.

primary microglial cells = tested on: primary microglial cells
Method: FIGS. 4A-4C. […] Data are represented as mean percentage of CD40 expressing cells (±SD). […] Microglial cell culture supernatants were collected and subjected to cytokine ELISA as indicated. Data were represented as mean pg of TNFα or IL-12p70 per mg of total cellular protein (±SD). […] Cellular supernatants and lysates were analyzed for extracellular (top panel) and cell-associated (bottom panel) FITC-Aβ42 using a fluorometer. Data are represented as the relative fold of mean fluorescence change (mean±SD), calculated as the mean fluorescence for each sample at 37° C. divided by mean fluorescence at 4° C.
Data are represented as mean percentage of CD40-expressing cells (±SD) (FIG. 4A). […] Microglial cell culture supernatants were collected and subjected to cytokine ELISA as indicated. Data are represented as mean pg of TNFα or IL-12p70 per mg of total cellular protein (±SD) (FIG. 4B). […] Cellular supernatants and lysates were analyzed for extracellular (top panel) and cell-associated (bottom panel) FITC-Aβ42 using a fluorometer (FIG. 4C). Data are represented as the relative fold of mean fluorescence change (mean±SD), calculated as the mean fluorescence for each sample at 37° C. divided by mean fluorescence at 4° C.

GSK3β [12] = conditions: 12 hours
Method: FIGS. 2A and 2B. […] Cell lysates were prepared and subjected to WB analysis with specific anti-phospho-GSK3β (Ser9) and total GSK3β antibodies. […] WB results are representative of three independent experiments.
WB results are representative of three independent experiments.

Notch processing = conditions: N2a/APPwt/Notch-ΔE cells, 0, 2.5, 5 and 10 mM, 5 hours, compared to DFK-167
Excerpt: (§2) FIGS. 1A and 1B. […] The cell lysates were routinely prepared from these cells for Western blot (WB) analysis.

Aβ40,42 peptides = conditions: N2a/APPwt cells, LISPRO 0, 2.5, 5 and 10 mM, 12 h
Excerpt: as §2

[13] = tested on: primary microglia isolated from 3XTg-AD mice; conditions: microglia from older 3XTg-AD mice treated at minimum dose, vs Li2CO3 or control diet
Excerpt: The inventors will fully examine microglial pro-inflammatory MAPK, NF-kB and CD40 signaling pathways, cytokine secretion, Aβ phagocytosis capacity, markers of M1 or M2 phenotype and microglial autophagy (IMPase) ex vivo via immunohistochemistry, WB, RT-PCR and Flow analysis in primary microglia isolated from these mice. These methods and assays have been well established as previously published (56, 73, 75). The culturing of primary microglial cells from young and aged mice has been routinely conducted (28, 29, 73).

Compound | β-amyloid pathology (4G8 positive Aβ plaques in brain sections) [1] | difference in MAP2, phospho-synapsin I and total tau immunofluorescence and WB between Li2CO3, LiCl and L-proline [2] | difference in β-tubulin III and phospho-synapsin I immunofluorescence and WB between Li2CO3, LiCl and L-proline (N2a cells) | difference in lithium levels in serum and brain homogenate between Li2CO3- and lithium salicylate-treated mice [3] | difference in MAP2 and GFAP immunofluorescence and WB between Li2CO3, LiCl and L-proline [5] | autophagy (LC3B fluorescence intensity of autophagosomes and cytosol) [6] | difference in GSK3β phosphorylation between Li2CO3 and LiCl (GSK3β [7]) | difference in COX2 expression between Li2CO3 and LiCl (COX2 [10]) | GSK3β activity / GSK3β (Ser9) phosphorylation (WB) (GSK3β [7]) | difference in fluorescence intensity of autophagosomes and cytosol versus Li2CO3 [6] | other results
O=C([O-])[O-].[Li+].[Li+] [Li2CO3, lithium carbonate] | no notable or significant difference | no significance difference | no notable or significant difference | no significant difference | no significance difference | significant enhancement of autophagy | no notable differences | no notable differences |  |  | kidney (renal) COX2 expression versus control mice (COX2 [4]): enhanced; cytokine levels in plasma and splenocyte cultured media (cytokines and sCD40L; vs control NIH31 diet): no notable or significant difference; brain lithium level profile [8]: spike in brain lithium levels at 24 hours; plasma lithium level at 48 hours [8]: nearly undetectable; plasma lithium pharmacokinetic profile [8]: sharp peak and rapid elimination; ratio of pGSK3β (Ser9) to total GSK3β in brain homogenates (GSK3β [9]): no notable and significant difference; ratio of p-tau (Thr231) to total tau in brain homogenates (tau): no notable and significant difference
O=C([O-])c1ccccc1O.[Li+] [lithium salicylate] |  |  |  | no significant difference |  |  |  |  |  |  | kidney microsomal COX2 expression levels versus control NIH31 diet (COX2 [11]): no significant difference
O=C(O)[C@@H]1CCCN1 [L-proline] |  | no significance difference | no notable or significant difference |  | no significance difference | failed to promote any notable autophagy |  |  | no change |  | COX2 expression (WB) (COX2 [10]): no change
Lithium Salicylate Proline [LISPRO] | Reduces β-Amyloid Pathology |  |  |  |  | significant enhancement of autophagy |  |  | Markedly Reduces GSK3β Activity | no significance difference | murine neuronal stem cell differentiation (MAP2, total tau, phospho-synapsin I) [2]: Enhances Murine Neuronal Stem Cell Differentiation; neuronal cell differentiation (β-tubulin III, phospho-synapsin I) (N2a cells): Markedly Promotes Neuronal Cell Differentiation; effectiveness on abolishing AD-like cognitive impairment (3XTg-AD mice): more effective than equimolar doses of Li2CO3; long-term and short-term memory impairment (behavioral battery) (3XTg-AD mice; prophylactic and therapeutic groups): will reverse or abolish long-term and short-term memory impairment; microglial phagocytosis of Aβ (FITC-Aβ42, extracellular and cell-associated) (primary microglial cells; 10 mM pre-treatment 6 hours, 1 μM aged FITC-Aβ42 1 hour): Enhances Microglial Phagocytosis of Aβ; IFNγ-induced CD40 expression (FACS, percentage of CD40-expressing cells) (primary microglial cells; 8 hours co-treatment): significant dose-dependent decreases; pro-inflammatory microglial activation induced by IFNγ and CD40 signaling (FACS, TNFα and IL-12p70 ELISA) (primary microglial cells; IFNγ or/and CD40L 1 μg/mL, 8 hours): Inhibits Microglial Activation-Induced by IFNγ and CD40 Signaling; human neuronal stem cell differentiation (MAP2, GFAP) [5]: Enhances Human Neuronal Stem Cell Differentiation; phosphorylated GSK3β (Ser9) level (WB) (GSK3β [12]; SH-SY5Y cells): notably elevated; phosphorylated GSK3β (Ser9) level (WB) (GSK3β [12]; primary neuronal cells): notably elevated; Notch cleavage (WB, c-myc and cleaved Notch antibodies) (Notch processing): did not inhibit Notch cleavage; Aβ40, Aβ42 peptides secreted in cell culture media (Aβ generation) (Aβ40,42 peptides): reduces Aβ generation; anti-inflammatory/Th2 responses (cytokine ELISA) (cytokines and sCD40L; oral): Promotes Anti-Inflammatory/Th2 Responses; sCD40L in the CNS (brain homogenate ELISA) (cytokines and sCD40L; oral): Decreases sCD40L; microglial M2 phenotype ex vivo [13]: will strongly preserve an M2 phenotype
[Cl-].[Li+] [LiCl] |  | no significance difference | no notable or significant difference |  | no significance difference |  | no notable differences | no notable differences |  | no significance difference | 
